US7491505B2, “Method for analyzing tumor aggressivity comprising measurement of polymerized actin” (Bioalliance Pharma, priority 2002, dated 2009)

System: polymerized actin in lysate of NIH 3T3 EF cells
Experiment: Measurement of polymerized actin in the steady state (STAFI) and Kobs in cellular lysate by static fluorescence polarization
Assay type: biochemical, murine
Settings: NIH 3T3 EF lysate
Description: The result of the test is a plateau fluorescence anisotropy value (<<STAFI>>) corresponding to the quantity of polymerized actin in the steady state and an apparent constant (Kobs) for actin polymerization resulting from the progressive incorporation of marked actin monomers over time until attainment of the steady state, that is the plateau of the curve.
By use of the GraphPad Prism® version 3 Software (GraphPad Software, Inc., San Diego, Calif.), for biostatistics, curve fitting, and scientific graphing, the experimental data are used to generate a curve adjusted to a 1st order equation such that: Y=ΔmA max(1−e^−k·t) where
The technique of fluorescence polarization, also called static fluorescence anisotropy enables the obtaining of a value dependent on the size of the fluorescent molecule and the number of fluorescent molecular complexes. […] The level of this plateau, called <<STAFI>> reflects the quantity of F at the steady state, that is, the […], and the speed of reaching the plateau depends on the rapidity with which these filaments are formed. […]
At the time of the test, the solution of marked actin monomers is diluted to 1/3 in G solution. The apparatus used is a Beacon® 2000 Fluorescence Polarization System (Invitrogen Corporation, Carlsbad, Calif.) fluorescence polarization spectrometer. […]

Structure (SMILES): C/C1=C\[C@H](C)C[C@H](C)OC(=O)C[C@H](c2ccc(O)cc2)NC(=O)[C@@H](Cc2c(Br)[nH]c3ccccc23)N(C)C(=O)[C@H](C)NC(=O)[C@@H](C)C1 [Jasplakinolide]
- delta mA max (STAFI, fluorescence anisotropy value at the plateau) (10 μM jasplakinolide added to polymerization medium, initial value 35 mA, NIH 3T3 65 mA): 66 mA
- Kobs (apparent constant of actin polymerization) (jasplakinolide added, NIH 3T3 EF alone 0.04, NIH 3T3 0.086): 0.15
